Reference: US20230295110A1, “PHD INHIBITOR COMPOUNDS, COMPOSITIONS, AND METHODS OF USE” (Akebia Therapeutics, Inc., priority 2020, published 2023)
pIC50: −log10 of the molar value. Where two headings read alike, the source gives them in different places.

Assays:
full-length human PHD2 = full-length human PHD2 (Homo sapiens (Human), UniProt Q9GZT9); assay: TR-FRET assay for PHD enzymes, PHD2
Source text: Time-resolved fluorescence resonance energy transfer (TR-FRET) assay was utilized to determine the enzymatic half maximal inhibitory concentration (IC50) value of PHD inhibitors against the full-length human prolyl-4-hydroxylase domain (PHD) enzymes, PHD1, PHD2, and PHD3. The TR-FRET assay was developed based on the specific binding of hydroxylated HIF-1α peptide with the complex formed by VHL, EloB and EloC (VBC), to generate a fluorescent signal. Terbium (Tb)-Donor (monoclonal antibody anti-6His-Tb-cryptate Gold) and D2-acceptor (streptavidin [SA]-D2) of TR-FRET are linked to the VBC complex and to HIF-1α peptide, respectively. The VBC complex binds specifically to the HIF-1α peptide when it is hydroxylated, allowing energy transfer from TR-FRET donor to acceptor (FIG. 1). […] The plates were incubated for 30 minutes at room temperature without rotation. […] TR-FRET assays were performed in triplicate at each concentration of compound and the assays were repeated independently three times.

full-length human PHD3 = full-length human PHD3 (Homo sapiens (Human), UniProt Q9H6Z9); assay: TR-FRET assay for PHD enzymes, PHD3; assay type: biochemical
Chain of full-length human PHD3 (Q9H6Z9 whole entry): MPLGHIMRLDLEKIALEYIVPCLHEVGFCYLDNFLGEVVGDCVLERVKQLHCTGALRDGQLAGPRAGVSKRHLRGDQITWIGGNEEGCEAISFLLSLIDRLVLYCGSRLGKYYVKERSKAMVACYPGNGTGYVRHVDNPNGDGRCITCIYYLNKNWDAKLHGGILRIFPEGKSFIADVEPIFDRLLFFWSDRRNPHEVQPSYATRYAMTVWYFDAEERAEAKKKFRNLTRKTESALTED
Source text: Recombinant human PHD3 protein (molecular weight 31.1 kDa) was purchased from Active Motif (Carlsbad, CA, USA). It was expressed in E. coli as the full-length protein (NCBI accession number NP_071356.1) with an N-terminal 6-His tag (catalog #81033, Lot #24417001).

full-length human PHD1 = full-length human PHD1 (Homo sapiens (Human), UniProt Q96KS0); assay: TR-FRET assay for PHD enzymes, PHD1; assay type: biochemical; conditions: for pIC50: TR-FRET, 15 nM PHD1, 1 μM 2-OG
Chain of full-length human PHD1 (Q96KS0 whole entry): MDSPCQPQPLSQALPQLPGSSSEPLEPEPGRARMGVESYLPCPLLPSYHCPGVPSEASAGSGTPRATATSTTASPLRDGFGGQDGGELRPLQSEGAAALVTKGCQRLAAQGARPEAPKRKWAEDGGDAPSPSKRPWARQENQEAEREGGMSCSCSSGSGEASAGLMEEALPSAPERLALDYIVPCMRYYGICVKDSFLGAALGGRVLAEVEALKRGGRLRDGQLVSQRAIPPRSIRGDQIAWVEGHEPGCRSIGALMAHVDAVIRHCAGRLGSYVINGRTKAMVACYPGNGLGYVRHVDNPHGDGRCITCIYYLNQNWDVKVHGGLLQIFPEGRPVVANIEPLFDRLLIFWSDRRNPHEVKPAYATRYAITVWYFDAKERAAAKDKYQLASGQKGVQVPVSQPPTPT
Source text: PHD1 was expressed in a baculovirus expression system as the full-length protein (NCBI accession number NP_542770.2) with an N-terminal FLAG tag (molecular weight 44.9 kDa).

[1] = read-out: PHD2 IC50, TR-FRET, 5 nM PHD2, 1 μM 2-OG

Chain of full-length human PHD2 (Q9GZT9 whole entry): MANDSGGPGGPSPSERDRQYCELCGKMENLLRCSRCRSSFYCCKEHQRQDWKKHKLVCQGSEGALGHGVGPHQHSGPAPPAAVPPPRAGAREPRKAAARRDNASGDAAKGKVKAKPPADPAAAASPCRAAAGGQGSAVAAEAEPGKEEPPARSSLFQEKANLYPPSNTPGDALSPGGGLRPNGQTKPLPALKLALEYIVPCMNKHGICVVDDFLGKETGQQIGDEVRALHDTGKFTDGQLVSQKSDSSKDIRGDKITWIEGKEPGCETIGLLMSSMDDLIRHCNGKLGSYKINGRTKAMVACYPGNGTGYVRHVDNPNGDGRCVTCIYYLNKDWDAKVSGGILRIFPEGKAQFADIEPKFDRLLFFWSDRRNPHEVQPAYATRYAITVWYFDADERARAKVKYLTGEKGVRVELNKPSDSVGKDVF

Structure (SMILES)	pIC50 (full-length human PHD2; [1])	pIC50 (full-length human PHD3; TR-FRET, 35 nM PHD3, 1 μM 2-OG)	pIC50 (full-length human PHD1)	pIC50 (full-length human PHD2)	pIC50 (full-length human PHD3)	Km (full-length human PHD1; read-out: Km of 2-OG for PHD1)
Cc1c(-c2cnc3ccccc3c2)cnc(C(=O)NCC(=O)O)c1O [Compound 28]	> 7.00	> 7.00	> 7.00			
Cc1c(-c2cnc(-c3ccccc3)s2)cnc(C(=O)NCC(=O)O)c1O [Compound 7, (3-Hydroxy-4-methyl-5-(2-phenylthiazol-5-yl)picolinoyl)glycine]	> 7.00	> 7.00	> 7.00			
Cc1c(-c2cccc(Cl)c2)cnc(C(=O)NC(C)(C)C(=O)O)c1O [Compound 13, 2-(5-(3-Chlorophenyl)-3-hydroxy-4-methylpicolinamido)-2-methylpropanoic Acid]			< 5.00	< 5.00		
Cc1ccc2cc(-c3cnc(C(=O)NCC(=O)O)c(O)c3C)ccc2n1 [Compound 5, (3-Hydroxy-4-methyl-5-(2-methylquinolin-6-yl)picolinoyl)glycine]	> 7.00	> 7.00	> 7.00			
Cc1c(C#Cc2ccccc2)cnc(C(=O)NCC(=O)O)c1O [Compound 62]	> 7.00		> 7.00			
Cc1c(-c2cnn(C(C)C)c2)cnc(C(=O)NCC(=O)O)c1O [Compound 20, (3-Hydroxy-5-(1-isopropyl-1H-pyrazol-4-yl)-4-methylpicolinoyl)glycine]	> 7.00	> 7.00	> 7.00			
Cc1c(Cc2ccccc2)cnc(C(=O)NCC(=O)O)c1O [Compound 58]			5.00 to 6.00	6.00 to 7.00		
Cc1c(-c2ccc3cnccc3c2)cnc(C(=O)NCC(=O)O)c1O [Compound 3, (3-Hydroxy-5-(isoquinolin-6-yl)-4-methylpicolinoyl)glycine]	> 7.00	> 7.00	> 7.00			
Cc1c(-c2cnn(-c3ccc(Cl)cc3Cl)c2)cnc(C(=O)NCC(=O)O)c1O [Compound 60]	> 7.00		> 7.00			
Cc1ccc(-c2cnc(C(=O)NCC(=O)O)c(O)c2C)cn1 [Compound 27, (5-hydroxy-4,6′-dimethyl-[3,3′-bipyridine]-6-carbonyl)glycine]	> 7.00		> 7.00		6.00 to 7.00	
O=C(O)CNC(=O)c1ncc(-c2cccc(Cl)c2)c(C2CC2)c1O [Compound 69, (5-(3-Chlorophenyl)-4-cyclopropyl-3-hydroxypicolinoyl)glycine]			6.00 to 7.00	6.00 to 7.00		
Cc1c(-c2cccc(Cl)c2)cnc(C(=O)NC2(C(=O)O)CC2)c1O [Compound 14, 1-(5-(3-Chlorophenyl)-3-hydroxy-4-methylpicolinamido)cyclopropane-1-carboxylic acid]			5.00 to 6.00	5.00 to 6.00		
Cc1ncccc1-c1cnc(C(=O)NCC(=O)O)c(O)c1C [Compound 29]			6.00 to 7.00	6.00 to 7.00		
Cc1c(-c2nnn(C3CC3)n2)cnc(C(=O)NCC(=O)O)c1O [Compound 52]	> 7.00		> 7.00			
Cc1cc(Cc2ccc(F)cc2)c(O)c(C(=O)NCC(=O)O)n1 [Compound 24, (4-(4-Fluorobenzyl)-3-hydroxy-6-methylpicolinoyl)glycine]			6.00 to 7.00	6.00 to 7.00		
CCc1c(-c2cccc(Cl)c2)cnc(C(=O)NCC(=O)O)c1O [Compound 46, (5-(3-chlorophenyl)-4-ethyl-3-hydroxypicolinoyl)glycine]	> 7.00		> 7.00			
Cc1c(-c2cccc(Oc3ccccc3)c2)cnc(C(=O)NCC(=O)O)c1O [Compound 8, (3-Hydroxy-4-methyl-5-(3-phenoxyphenyl)picolinoyl)glycine]	> 7.00		> 7.00			
Cc1c(Oc2ccccc2)cnc(C(=O)NCC(=O)O)c1O [Compound 35, (3-hydroxy-4-methyl-5-phenoxypicolinoyl)glycine]	6.00 to 7.00		6.00 to 7.00			
Cc1c(-c2nn[nH]n2)cnc(C(=O)NCC(=O)O)c1O [Compound 64]			6.00 to 7.00	6.00 to 7.00		
Cc1c(N2CCN(c3ccccc3)CC2)cnc(C(=O)NCC(=O)O)c1O [Compound 55]			> 7.00	6.00 to 7.00		
Cc1c(-c2cnn(-c3ccc(C(F)(F)F)cc3)c2)cnc(C(=O)NCC(=O)O)c1O [Compound 67]	> 7.00		> 7.00			
Cc1c(N2CCC(c3ccccc3)CC2)cnc(C(=O)NCC(=O)O)c1O [Compound 56]	> 7.00		> 7.00			
Cc1c(-c2cnn(-c3ccccc3)c2F)cnc(C(=O)NCC(=O)O)c1O [Compound 49, (5-(5-fluoro-1-phenyl-1H-pyrazol-4-yl)-3-hydroxy-4-methylpicolinoyl)glycine]	> 7.00		> 7.00			
Cc1c(-c2nnn(-c3ccccc3)n2)cnc(C(=O)NCC(=O)O)c1O [Compound 65]	> 7.00		> 7.00			

Structure (SMILES)	pIC50 (full-length human PHD2; [1])	pIC50 (full-length human PHD3; TR-FRET, 35 nM PHD3, 1 μM 2-OG)	pIC50 (full-length human PHD1)	pIC50 (full-length human PHD2)	pIC50 (full-length human PHD3)	Km (full-length human PHD1; read-out: Km of 2-OG for PHD1)
Cc1c(CCc2ccccc2)cnc(C(=O)NCC(=O)O)c1O [Compound 61]			6.00 to 7.00	6.00 to 7.00		
Cc1cc(CCOCc2ccccc2)c(O)c(C(=O)NCC(=O)O)n1 [Compound 23, (4-(2-(Benzyloxy)ethyl)-3-hydroxy-6-methylpicolinoyl)glycine]			6.00 to 7.00	6.00 to 7.00		
Cc1c(-c2cnn(-c3cc(Cl)cc(Cl)c3)c2)cnc(C(=O)NCC(=O)O)c1O [Compound 66]	> 7.00		> 7.00			
Cc1c(-c2ccccn2)cnc(C(=O)NCC(=O)O)c1O [Compound 12, (5′-Hydroxy-4′-methyl-[2,3′-bipyridine]-6′-carbonyl)glycine]	> 7.00		> 7.00			
Cc1c(-c2nnn(-c3cc(Cl)cc(Cl)c3)n2)cnc(C(=O)NCC(=O)O)c1O [Compound 45, (5-(2-(3,5-dichlorophenyl)-2H-tetrazol-5-yl)-3-hydroxy-4-methylpicolinoyl)glycine]	> 7.00		> 7.00			
Cc1c(-c2cccc(Cl)c2)cnc(C(=O)NC2(C(=O)O)CCC2)c1O [Compound 15, 1-(5-(3-Chlorophenyl)-3-hydroxy-4-methylpicolinamido)cyclobutane-1-carboxylic acid]			< 5.00	< 5.00		
Cc1c(S(=O)(=O)c2ccccc2)cnc(C(=O)NCC(=O)O)c1O [Compound 54]			6.00 to 7.00	6.00 to 7.00		
Cc1c(-c2ccc3ncccc3c2)cnc(C(=O)NCC(=O)O)c1O [Compound 34, (3-hydroxy-4-methyl-5-(quinolin-6-yl)picolinoyl)glycine]	> 7.00		> 7.00			
Cc1c(-c2cnn(C3CCN(C(=O)OC(C)(C)C)CC3)c2)cnc(C(=O)NCC(=O)O)c1O [Compound 6, (5-(1-(1-(Tert-butoxycarbonyl)piperidin-4-yl)-1H-pyrazol-4-yl)-3-hydroxy-4-methylpicolinoyl)glycine]	> 7.00		> 7.00			
Cc1c(-c2ccc3c(c2)CCC(C)N3)cnc(C(=O)NCC(=O)O)c1O (stereo not drawn) [Compound 17, (3-Hydroxy-4-methyl-5-(2-methyl-1,2,3,4-tetrahydroquinolin-6-yl)picolinoyl)glycine]	> 7.00		> 7.00			
Cc1c(-c2cccc(Cl)c2)cnc(C(=O)NC2(C(=O)O)COC2)c1O [Compound 16, 3-(5-(3-Chlorophenyl)-3-hydroxy-4-methylpicolinamido)oxetane-3-carboxylic Acid]			5.00 to 6.00	< 5.00		
Cc1c(-c2cnn(-c3ccccc3)c2C)cnc(C(=O)NCC(=O)O)c1O [Compound 50, (3-hydroxy-4-methyl-5-(5-methyl-1-phenyl-1H-pyrazol-4-yl)picolinoyl)glycine]			6.00 to 7.00	6.00 to 7.00		
Cc1c(-c2nnn(-c3ccc(Cl)cc3)n2)cnc(C(=O)NCC(=O)O)c1O [Compound 63]	> 7.00		> 7.00			
Cc1c(-c2cnn(-c3ccccc3)c2)cnc(C(=O)NCC(=O)O)c1O [Compound 4, (3-Hydroxy-4-methyl-5-(1-phenyl-1H-pyrazol-4-yl)picolinoyl)glycine]	> 7.00		> 7.00			
Cc1c(-c2ccncc2)cnc(C(=O)NCC(=O)O)c1O [Compound 11, (5-Hydroxy-4-methyl-[3,4′-bipyridine]-6-carbonyl)glycine]	> 7.00		> 7.00			
Cc1c(C(=O)c2ccccc2)cnc(C(=O)NCC(=O)O)c1O [Compound 40, (5-benzoyl-3-hydroxy-4-methylpicolinoyl)glycine]			6.00 to 7.00	6.00 to 7.00		
Cc1c(Oc2ccccc2)cnc(C(=O)NCC(=O)O)c1O [Compound 57, 2-(3-hydroxy-4-methyl-5-phenoxypicolinamido)acetic acid]			5.00 to 6.00	6.00 to 7.00		
O=C(O)CCC(=O)C(=O)O [Compound 2-OG, 2-oxoglutarate, reference compound]						0.0127 µM
Cc1c(Sc2ccccc2)cnc(C(=O)NCC(=O)O)c1O [Compound 59]			5.00 to 6.00	6.00 to 7.00		
Cc1c(-c2ccn(-c3ccccc3)c2)cnc(C(=O)NCC(=O)O)c1O [Compound 51]			> 7.00	6.00 to 7.00		
O=C(O)CNC(=O)c1ncc(-c2cccc(Cl)c2)c(C(F)F)c1O [Compound 70, (5-(3-Chlorophenyl)-4-(difluoromethyl)-3-hydroxypicolinoyl)glycine]			6.00 to 7.00	6.00 to 7.00		
Cc1c(C#CCOc2ccccc2)cnc(C(=O)NCC(=O)O)c1O [Compound 53]	> 7.00		> 7.00			
Cc1c(-c2cccc(F)c2)cnc(C(=O)NCC(=O)O)c1O [Compound 1, (5-(3-Fluorophenyl)-3-hydroxy-4-methylpicolinoyl)glycine]	> 7.00		> 7.00			
